Results as given in patent publication US20210401730A1, “USE OF EXTRACTS OF AGAVE FOR A HAIR APPLICATION” (priority 2017, published 2021).
Where two headings read alike, the source gives them in different places.

Tests used:
[1] = test system: human umbilical vein endothelial cells (HUVEC); test: Formation of microtubules (pseudo-tubes) by endothelial cells on matrigel; assay type: cell-based; conditions: for Results in % (formation of pseudo-tubes): 6 hours, control medium = 100
Description: In this experiment, the cells are human umbilical vein endothelial cells (HUVEC) cultured in M200 medium (Invitrogen M200500) on matrigel (BD Biosciences 354234) for 6 hours. The cells are either in the medium (control medium) or treated by suramin (negative control) or treated by VEGF (positive control) or treated by Metlin® or Metlos® inulins (at 0.1%). After 6 hours of incubation, the pseudo-tubes formed are observed under the microscope and images are taken at random to be subsequently quantified (total surface of the network) by image analysis.

[2] = test system: EPCs (circulating endothelial progenitor cells) originating from human umbilical cord blood; test: Migration of endothelial progenitor cells through insert membrane; assay type: cell-based; conditions: C+ medium + VEGF 10 ng/ml, 5 hours
Description: The study was carried out on EPCs (circulating endothelial progenitor cells) originating from human umbilical cord blood, cultured in EGM-2 medium (Endothelial Growth medium-2).
Before the treatment, the cells are starved in 0.2% EBM-2 medium of fetal calf serum (FCS). The cells are subsequently seeded in an insert containing EGM-2 medium with 0.2% FCS, immersed in a well containing the treatment: either EGM-2 medium 0.2% FCS (negative control), or EGM-2 medium 0.2% FCS plus VEGF at 10 ng/ml (positive control), or EGM-2 medium 0.2% FCS plus the Metlin® or Metlos® inulins at 0.5% or 1%. After 5 hours of incubation, the cells inside the inserts are eliminated and those that have migrated to the other side of the insert membrane are fixed with 4% paraformaldehyde for 10 min. The cells that have migrated are subsequently counted.

Compound | Number of branchings ([1]; C− 20 μM, 6 hours of incubation) | Results in % (formation of pseudo-tubes) ([1]; C− 20 μM) [%] | Number of cells (migrated) [2] | Results relative to C− [2] [%] | Number of branchings [1] | Results in % (formation of pseudo-tubes) ([1]; C+ 50 ng/ml) [%]
Cc1ccc(C(=O)Nc2ccc(S(=O)(=O)O)c3cc(S(=O)(=O)O)cc(S(=O)(=O)O)c23)cc1NC(=O)c1cccc(NC(=O)Nc2cccc(C(=O)Nc3cc(C(=O)Nc4ccc(S(=O)(=O)O)c5cc(S(=O)(=O)O)cc(S(=O)(=O)O)c45)ccc3C)c2)c1 [Suramin, suramin] | 0 | 0 | – | – | – | –
VEGF | – | – | 417 | 181 | 18 | 140
